From US20230114728A1 (Venatorx Pharmaceuticals, Inc., priority 2019, published 2023)
≈ marks a conversion by molar mass, not a printed value.

Experiments:
Experiment in all cases: Broth microdilution MIC in iron-depleted CAMHB (IDM)
Type in all cases: cell-based
A. baumannii ATCC 17978 = settings: Acinetobacter baumannii, ATCC17978, read-out: Minimum Inhibitory Concentration, ATCC 17978
Method in brief: (§1)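 CLSI broth microdilution in iron-depleted CAMHB (Chelex 100-treated, Ca, Mg and 10 μM Zn re-added, pH 7.3). Inoculum was 2-8×10^5 CFU/mL from 3-5 h IDM cultures. Plates were incubated at 37° C for 20-24 h (Acinetobacter) or 16-20 h (Pseudomonas), and MIC was read visually as the lowest concentration without growth.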

[1] = system: A. baumannii CDC-0033 producing NDM-1, and OXA-94; settings: Acinetobacter baumannii, read-out: Minimum Inhibitory Concentration, CDC-0033
Method in brief: as §1

[2] = system: A. baumannii CDC-0036 OXA-65, and OXA-24; settings: Acinetobacter baumannii, read-out: Minimum Inhibitory Concentration, CDC-0036
Method in brief: as §1

[3] = system: P. aeruginosa (ΔmexAB-oprM); settings: Pseudomonas aeruginosa, read-out: Minimum Inhibitory Concentration, P. aeruginosa ΔmexAB-OprM
Method in brief: as §1

P. aeruginosa ATCC 27853 = settings: Pseudomonas aeruginosa, ATCC27853, read-out: Minimum Inhibitory Concentration, P. aeruginosa ATCC 27853
Method in brief: as §1

P. aeruginosa ATCC 35151 = settings: Pseudomonas aeruginosa, ATCC35151; iron-depleted MHB (IDM); hyper-permeable strain; read-out: Minimum Inhibitory Concentration, P. aeruginosa ATCC 35151
Method in brief: as §1

[4] = system: P. aeruginosa CDC-0054 producing VIM-4, OXA-50, and PAO; settings: Pseudomonas aeruginosa, read-out: Minimum Inhibitory Concentration, P. aeruginosa CDC-0054
Method in brief: as §1

[5] = system: P. aeruginosa CDC-0095 producing OXA-50, and PAO; settings: Pseudomonas aeruginosa, read-out: Minimum Inhibitory Concentration, P. aeruginosa CDC-0095
Method in brief: as §1

Row | SMILES | MIC (A. baumannii ATCC 17978) [µg/mL] | MIC [1] [µg/mL] | MIC [2] [µg/mL] | MIC [3] [µg/mL] | MIC (P. aeruginosa ATCC 27853) [µg/mL] | MIC (P. aeruginosa ATCC 35151) [µg/mL] | MIC [4] [µg/mL] | MIC [5] [µg/mL]
1 | Nc1nc(/C(=N/OC[C@H](NC(=O)c2ccc(O)c(O)c2Cl)C(=O)O)C(=O)N[C@H]2Cc3cccc(C(=O)O)c3OB2O)cs1 [Example 6, (R)-3-((Z)-2-(2-aminothiazol-4-yl)-2-(((S)-2-carboxy-2-(2-chloro-3,4-dihydroxybenzamido)ethoxy)imino)acetamido)-2-hydroxy-3,4-dihydro-2H-benzo[e][1,2]oxaborinine-8-carboxylic acid] | 8 to 16 (≈ 12.6 to 25.2 µM) | 32 to 64 (≈ 50.5 to 101 µM) | 32 to 64 (≈ 50.5 to 101 µM) | 0.5 to 1 (≈ 0.789 to 1.58 µM) | 0.5 to 1 (≈ 0.789 to 1.58 µM) | 0.25 (≈ 0.394 µM) | 0.5 to 1 (≈ 0.789 to 1.58 µM) | 2 to 4 (≈ 3.16 to 6.31 µM)
2 | CCN1CCN(C(=O)N[C@@H](C(=O)N[C@H]2Cc3ccc(F)c(C(=O)O)c3OB2O)c2c(Cl)cc(O)c(O)c2F)C(=O)C1=O (single isomer, unassigned) [Example 207] | 0.5 to 1 (≈ 0.819 to 1.64 µM) | 32 to 64 (≈ 52.4 to 105 µM) | 2 to 4 (≈ 3.27 to 6.55 µM) | 2 to 4 (≈ 3.27 to 6.55 µM) | 2 to 4 (≈ 3.27 to 6.55 µM) | 0.25 (≈ 0.409 µM) | 2 to 4 (≈ 3.27 to 6.55 µM) | 8 to 16 (≈ 13.1 to 26.2 µM)
3 | O=C(NCCN1CCN(C(=O)NC(C(=O)N[C@H]2Cc3ccc(F)c(C(=O)O)c3OB2O)c2ncc(O)cc2F)C(=O)C1=O)c1c(F)cc(O)c(O)c1Cl (stereo partly drawn) [Example 5, (3R)-3-(2-(4-(2-(2-chloro-6-fluoro-3,4-dihydroxybenzamido)ethyl)-2,3-dioxopiperazine-1-carboxamido)-2-(3-fluoro-5-hydroxypyridin-2-yl)acetamido)-7-fluoro-2-hydroxy-3,4-dihydro-2H-benzo[e][1,2]oxaborinine-8-carboxylic acid] | 0.25 (≈ 0.327 µM) | 2 to 4 (≈ 2.61 to 5.23 µM) | 32 to 64 (≈ 41.8 to 83.7 µM) | 0.25 (≈ 0.327 µM) | 0.25 (≈ 0.327 µM) | 0.25 (≈ 0.327 µM) | 0.25 (≈ 0.327 µM) | 0.5 to 1 (≈ 0.654 to 1.31 µM)
4 | CCN1CCN(C(=O)N[C@@H](C(=O)N[C@H]2Cc3cc(Cl)c(F)c(C(=O)O)c3OB2O)c2c(F)cc(O)c(O)c2Cl)C(=O)C1=O [Example 191, (R)-6-chloro-3-((R)-2-(2-chloro-6-fluoro-3,4-dihydroxyphenyl)-2-(4-ethyl-2,3-dioxopiperazine-1-carboxamido)acetamido)-7-fluoro-2-hydroxy-3,4-dihydro-2H-benzo[e][1,2]oxaborinine-8-carboxylic acid] | 2 to 4 (≈ 3.1 to 6.2 µM) | > 128 | 32 to 64 (≈ 49.6 to 99.2 µM) | 0.25 (≈ 0.387 µM) | 2 to 4 (≈ 3.1 to 6.2 µM) | 0.25 (≈ 0.387 µM) | 2 to 4 (≈ 3.1 to 6.2 µM) | 8 to 16 (≈ 12.4 to 24.8 µM)
5 | NCCN1CCN(C(=O)N[C@@H](C(=O)N[C@H]2Cc3ccc(F)c(C(=O)O)c3OB2O)c2c(F)c(F)c(O)c(O)c2Cl)C(=O)C1=O [Example 226, (R)-3-((R)-2-(4-(2-aminoethyl)-2,3-dioxopiperazine-1-carboxamido)-2-(2-chloro-5,6-difluoro-3,4-dihydroxyphenyl)acetamido)-7-fluoro-2-hydroxy-3,4-dihydro-2H-benzo[e][1,2]oxaborinine-8-carboxylic acid] | 0.5 to 1 (≈ 0.777 to 1.55 µM) | 8 to 16 (≈ 12.4 to 24.9 µM) | 8 to 16 (≈ 12.4 to 24.9 µM) | 2 to 4 (≈ 3.11 to 6.21 µM) | 0.5 to 1 (≈ 0.777 to 1.55 µM) | 0.25 (≈ 0.388 µM) | 2 to 4 (≈ 3.11 to 6.21 µM) | 2 to 4 (≈ 3.11 to 6.21 µM)
6 | O=C(NCCCN1CCN(C(=O)NC(C(=O)N[C@H]2Cc3ccc(F)c(C(=O)O)c3OB2O)c2ncc(O)cc2F)C(=O)C1=O)c1ccc(O)c(O)c1Cl (stereo partly drawn) [Example 3, (3R)-3-(2-(4-(3-(2-chloro-3,4-dihydroxybenzamido)propyl)-2,3-dioxopiperazine-1-carboxamido)-2-(3-fluoro-5-hydroxypyridin-2-yl)acetamido)-7-fluoro-2-hydroxy-3,4-dihydro-2H-benzo[e][1,2]oxaborinine-8-carboxylic acid] | 8 to 16 (≈ 10.5 to 21 µM) | 32 to 64 (≈ 42.1 to 84.1 µM) | 32 to 64 (≈ 42.1 to 84.1 µM) | 0.5 to 1 (≈ 0.657 to 1.31 µM) | 2 to 4 (≈ 2.63 to 5.26 µM) | 0.25 (≈ 0.329 µM) | 2 to 4 (≈ 2.63 to 5.26 µM) | 8 to 16 (≈ 10.5 to 21 µM)
7 | NCCCN1CCN(C(=O)N[C@@H](C(=O)N[C@H]2Cc3cc(Cl)c(F)c(C(=O)O)c3OB2O)c2c(F)cc(O)c(O)c2Cl)C(=O)C1=O [Example 190, (R)-3-((R)-2-(4-(3-aminopropyl)-2,3-dioxopiperazine-1-carboxamido)-2-(2-chloro-6-fluoro-3,4-dihydroxyphenyl)acetamido)-6-chloro-7-fluoro-2-hydroxy-3,4-dihydro-2H-benzo[e][1,2]oxaborinine-8-carboxylic acid] | 8 to 16 (≈ 11.9 to 23.7 µM) | > 128 | > 128 | 0.25 (≈ 0.371 µM) | 2 to 4 (≈ 2.97 to 5.93 µM) | 0.5 to 1 (≈ 0.742 to 1.48 µM) | 8 to 16 (≈ 11.9 to 23.7 µM) | 8 to 16 (≈ 11.9 to 23.7 µM)
